Results published in US9393221B2, “Methods and compounds for reducing intracellular lipid storage” (THE GENERAL HOSPITAL CORPORATION, priority 2011, dated 2016).
Counter-ions that a name gives are not always drawn.

tested on: ATGL-KO iPSCs; assay: High throughput iPSC chemical screening, Oil Red O (ORO) lipid accumulation; assay type: cell-based, mouse; details: glycolytic switch compounds; for Z-score: test concentration or dose not given here

First: CN1CCN(C(c2ccccc2)c2ccc(Cl)cc2)CC1 (centres unmarked) [(1-[(4-Chlorophenyl)phenyl-methyl]-4-methylpiperazine)]
Second: CN(C)c1nc(N(C)C)nc(N(C)C)n1 [Altretamine]
The “Rank in normalized ORO score from screen” value of the first is lower: 720 for the first, 814 for the second.

same assay, conditions: normalized ORO level vs DMSO-treated cells; compound present during 7 days differentiation, 96-well; negative = decrease in lipid accumulation

Compared with `CN1CCN(C(c2ccccc2)c2ccc(Cl)cc2)CC1` (centres unmarked) [(1-[(4-Chlorophenyl)phenyl-methyl]-4-methylpiperazine)], `Clc1ccc2c(c1)C(N1CCNCC1)=Nc1ccccc1O2` [Amoxapine] is lower in Z-score: 0.241 for the first, −0.8161 for the second.

Going from `CC(C)NC[C@@H](O)c1ccc(O)c(O)c1.O=C(O)C(O)C(O)C(=O)O` [(+)-Isoproterenol (+)-bitartrate salt] to `CCCC(=O)Nc1ccc(OCC(O)CNC(C)C)c(C(C)=O)c1` (centres unmarked) [Acebutolol hydrochloride], the Z-score rises from −0.728 to 0.4578.

First: CC(C)(C)NC[C@@H](O)COc1cccc2c1CCCC2=O.Cl [(+)-Levobunolol hydrochloride]
Second: CC(C)(C)NC[C@H](O)COc1cccc2c1CCCC2=O.Cl [(−)-Levobunolol hydrochloride]
The Z-score of the first is higher: −0.1813 for the first, −0.5665 for the second.

First: CC(C)NC[C@@H](O)COc1ccc(CC(N)=O)cc1 [(R)-(+)-Atenolol]
Second: C=CCc1ccccc1OCC(O)CNC(C)C (centres unmarked) [Alprenolol hydrochloride]
The Z-score of the first is higher: 0.9856 for the first, 0.9239 for the second.

First: COc1ccc2cc([C@@H](C)C(=O)[O-])ccc2c1.[Na+] [(R)-Naproxen sodium salt]
Second: COc1ccc(-c2cc(=O)c3c(O)cc(O)cc3o2)cc1 [Acacetin]
The Z-score of the first is higher: 2.243 for the first, 0.4211 for the second.

Compared with `CC(C)NC[C@@H](O)COc1cccc2ccccc12.Cl` [(R)-Propranolol hydrochloride], `CCN(CC)CCOC(=O)C(c1ccccc1)c1ccccc1` [Adiphenine hydrochloride] is higher in Z-score: −0.4494 for the first, 0.801 for the second.

Compared with `N[C@H]1CONC1=O` [(S)-(−)-Cycloserine], `NC(=O)NC1NC(=O)NC1=O` (centres unmarked) [Allantoin] is higher in Z-score: −0.4402 for the first, 0.8256 for the second.

Going from `C[C@@H]1CCC[C@H](C)N1.Cl` [(cis-) Nanophine] to `Nc1c(Br)cc(Br)cc1CN[C@H]1CC[C@H](O)CC1` [Ambroxol hydrochloride], the Z-score rises from −1.4074 to −0.9433.

Going from `COc1ccc2c(c1OC)CN1CCc3cc4c(cc3C1C2)OCO4` (centres unmarked) [(d,l)-Tetrahydroberberine] to `COC(=O)C1=CO[C@@H](C)[C@H]2CN3CCc4c([nH]c5ccccc45)[C@@H]3C[C@H]12.Cl` [Ajmalicine hydrochloride], the Z-score falls from 3.2577 to −0.8989.

Compared with `O=C(O)COC(=O)Cc1ccccc1Nc1c(Cl)cccc1Cl` [Aceclofenac], `COc1ccc2c(c1)c(CC(=O)OCC(=O)O)c(C)n2C(=O)c1ccc(Cl)cc1` [Acemetacin] is lower in Z-score: −0.5442 for the first, −0.9005 for the second.

First: CC(=O)CC(c1ccc([N+](=O)[O-])cc1)c1c(O)c2ccccc2oc1=O (centres unmarked) [Acenocoumarol]
Second: CC(=O)Oc1ccccc1C(=O)Oc1ccccc1C(=O)O [Acetylsalicylsalicylic acid]
The Z-score of the first is lower: −1.4804 for the first, −1.3067 for the second.

First: CC(=O)Nc1ccc(O)cc1 [Acetaminophen]
Second: Nc1ccc(C(=O)NCC(=O)O)cc1 [Aminohippuric acid]
The Z-score of the first is higher: −0.6512 for the first, −1.1341 for the second.

Going from `CC(=O)Nc1nnc(S(N)(=O)=O)s1` [Acetazolamide] to `N=C(N)NC(=O)c1nc(Cl)c(N)nc1N` [Amiloride hydrochloride dihydrate], the Z-score rises from 0.8773 to 1.955.

First: CC(=O)c1ccc(S(=O)(=O)NC(=O)NC2CCCCC2)cc1 [Acetohexamide]
Second: CC1(C)S[C@@H]2[C@H](NC(=O)[C@H](N)c3ccc(O)cc3)C(=O)N2[C@H]1C(=O)O [Amoxicillin]
The Z-score of the first is higher: 0.3584 for the first, −0.1957 for the second.

Going from `CC(=O)c1ccc2c(c1)N(CCCN(C)C)c1ccccc1S2.O=C(O)/C=C\C(=O)O` [Acetopromazine maleate salt] to `CN(C)CCC=C1c2ccccc2CCc2ccccc21.Cl` [Amitryptiline hydrochloride], the Z-score rises from −0.5926 to 0.6781.

Going from `CCN1C[C@]2(COC)[C@H](O)C[C@H](OC)[C@@]34[C@@H]5C[C@@]6(O)[C@H](OC(=O)c7ccccc7)[C@@H]5[C@@](OC(C)=O)([C@@H]([C@H](OC)[C@H]23)[C@@H]14)[C@@H](O)[C@@H]6OC` [Aconitine] to `CCC(=O)OCC(=O)[C@@]1(OC(=O)CC)[C@H](C)C[C@H]2[C@H]3[C@H]([C@@H](O)C[C@@]21C)[C@@]1(C)C=CC(=O)C=C1C[C@H]3Cl` [Alclometasone dipropionate], the Z-score rises from 0.7907 to 0.9375.

Compared with `Nc1nc2c(ncn2COCCO)c(=O)[nH]1` [Acyclovir], `Cn1c(=O)c2[nH]cnc2n(C)c1=O` [Aminophylline] is lower in Z-score: −0.0091 for the first, −1.0552 for the second.

Compared with `NC12CC3CC(CC(C3)C1)C2.NC12CC3CC(CC(C3)C1)C2.O=C(O)/C=C/C(=O)O` [Adamantamine fumarate], `CC(=O)OCC(=O)[C@H]1CC[C@H]2[C@@H]3CC[C@H]4C[C@H](O)CC[C@]4(C)[C@H]3C(=O)C[C@]12C` [Alfadolone acetate] is lower in Z-score: 0.2085 for the first, −0.4554 for the second.

Compared with `C[C@]12CCC(=O)C=C1CC[C@@H]1[C@@H]2C(=O)C[C@]2(C)C(=O)CC[C@@H]12` [Adrenosterone], `COc1cc2nc(N(C)CCCNC(=O)C3CCCO3)nc(N)c2cc1OC` (centres unmarked) [Alfuzosin hydrochloride] is higher in Z-score: −1.025 for the first, 0.4534 for the second.

Compared with `CC[C@H]1[C@@H]2C[C@H]3[C@@H]4N(C)c5ccccc5[C@]45C[C@@H]([C@H]2[C@H]5O)N3[C@@H]1O` [Ajmaline], `Cc1c(N(C)C)c(=O)n(-c2ccccc2)n1C` [Amidopyrine] is higher in Z-score: −0.937 for the first, 0.347 for the second.

First: CCCSc1ccc2nc(NC(=O)OC)[nH]c2c1 [Albendazole]
Second: CCN(CC)Cc1cc(Nc2ccnc3cc(Cl)ccc23)ccc1O [Amodiaquin dihydrochloride dihydrate]
The Z-score of the first is higher: 41.6509 for the first, 0.3315 for the second.

Going from `C=CC[N@@+]12CC[C@@]34c5ccccc5N5/C=C6/[C@H]7C[C@H]8[C@@]9(CC[N@@+]8(CC=C)C/C7=C/CO)c7ccccc7N(/C=C(/[C@@H](C[C@@H]31)/C(=C\CO)C2)[C@H]54)[C@@H]69.[Cl-].[Cl-]` [Alcuronium chloride] to `CCCCc1oc2ccccc2c1C(=O)c1cc(I)c(OCCN(CC)CC)c(I)c1` [Amiodarone hydrochloride], the Z-score falls from 0.354 to 0.1139.

Compared with `CCCCC(CC)CNC(=N)NC(=N)NCCCCCCNC(=N)NC(=N)NCC(CC)CCCC` (centres unmarked) [Alexidine dihydrochloride], `CCCCC[C@H](O)/C=C/[C@H]1[C@H](O)CC(=O)[C@@H]1CCCCCCC(=O)O` [Alprostadil] is lower in Z-score: 43.2376 for the first, −0.9154 for the second.

Compared with `C=CCSCC1Nc2cc(Cl)c(S(N)(=O)=O)cc2S(=O)(=O)N1` (centres unmarked) [Althiazide], `c1ccc(CNc2ncnc3[nH]cnc23)cc1` [Aminopurine, 6-benzyl] is lower in Z-score: 0.2816 for the first, −0.7385 for the second.

Compared with `CN(C)c1nc(N(C)C)nc(N(C)C)n1` [Altretamine], `CN(C)CCCO[C@@H]1[C@H]2OC(C)(C)O[C@H]2O[C@@H]1[C@H](O)CO` [Amiprilose hydrochloride] is lower in Z-score: 0.5601 for the first, −0.6893 for the second.

Work on `NCC[C@H](O)C(=O)N[C@@H]1C[C@H](N)[C@@H](O[C@H]2O[C@H](CN)[C@@H](O)[C@H](O)[C@H]2O)[C@H](O)[C@H]1O[C@H]1O[C@H](CO)[C@@H](O)[C@H](N)[C@H]1O` [Amikacin hydrate] yielded a Z-score of 2.444.
